Experiment [1] concerns the target T1, Bromodomain-containing protein 4 (Homo sapiens, UniProt O60885). Put plainly: Inhibition of BRD4 BD1 (unknown origin) by FRET assay.
Experiment [2] deals with T1, Bromodomain-containing protein 4. The experiment in a line: Inhibition of BRD4 (unknown origin) by FRET assay.

As for `Cc1nnn(C)c1-c1cnc2c3ccc(C(C)(C)O)cc3n([C@@H](c3ccccc3)C3CCOCC3)c2c1`, the concentration for half-maximal inhibition (IC50) in experiment [1] is 2.88 nM.
In experiment [2], `CCS(=O)(=O)Nc1ccc(Oc2ccc(F)cc2F)c(-c2cn(C)c(=O)c3[nH]ccc23)c1` [MIVEBRESIB] gave an IC50 of 1.51 nM.

The values above are taken from ChEMBL document CHEMBL6109162, “Discovery of Highly Potent BET Inhibitors based on a Tractable Tricyclic Scaffold” (ACS Med Chem Lett, 2025).
